Data on one compound can be found in ChEMBL document CHEMBL4364344, “Design, synthesis and evaluation of activity and pharmacokinetic profile of new derivatives of xanthone and piperazine in the central nervous system” (Bioorg Med Chem Lett, 2019).

A word on the inhibition: it is the change of the read-out against control, counted positive when it falls. In general, Cmax refers to the maximum level reached in the sampled fluid or tissue. A word on the Tmax: it is the time at which the peak concentration occurs. As usually defined, the MRT is a mean duration of stay, worked out from the concentration-time curve.

For series [1], the species on record is Rattus norvegicus. The series is described as follows: Displacement of [125I]alpha-dendrotoxin rat brain voltage-gated potassium channel at 10 uM after 60 mins by radiometric scintillation analysis relative to control.
Series [2] deals with Serotonin 2 (5-HT2) receptor (Rattus norvegicus) (UniProt P30994+P08909+P14842). Put plainly: Displacement of [3H]ketanserin from 5-HT2 receptor in Wistar rat brain cortex membrane at 10 uM after 40 mins by scintillation counting analysis relative to control. It is filed as cell membranes. On the technique in general: Displacement assays read how much labelled ligand stays bound in the presence of the test substance.

A short description of series [3]: Cmax in CD-1 mouse plasma at 5 mg/kg, ip measured up to 480 mins by LC/ESI-MS/MS analysis. It is filed as ADME, organism-based. The arrangement: dose 5 mg/kg, route intraperitoneal.
For series [4], the target named is Mu-type opioid receptor (Homo sapiens) (UniProt P35372). The series is described as follows: Displacement of [3H]DAMGO from recombinant human MOR receptor at 10 uM after 120 mins by radiometric scintillation analysis relative to control.
Series [5] can be described thus: Tmax in CD-1 mouse brain at 5 mg/kg, ip measured up to 480 mins by LC/ESI-MS/MS analysis. It is filed as ADME, organism-based.
For series [6], the species on record is Rattus norvegicus. Put plainly: Displacement of [3H] TBPS from rat GABA gated chloride channel at 10 uM measured after 120 mins by scintillation counter method relative to control relative to control.
Series [7] addresses Neuropeptide Y receptor type 2 (Homo sapiens) (UniProt P49146). Put plainly: Displacement of [125I]peptide YY from human Y2 receptor at 10 uM after 60 mins by radiometric scintillation analysis relative to control.
A short description of series [8]: Tmax in CD-1 mouse plasma at 5 mg/kg, ip measured up to 480 mins by LC/ESI-MS/MS analysis. It is filed as ADME, organism-based.
In series [9] the target is Kappa-type opioid receptor (Homo sapiens) (UniProt P41145). Put plainly: Displacement of [3H]U69593 from human KOR receptor at 10 uM after 60 mins by radiometric scintillation analysis relative to control.
In series [10] the target is Galanin receptor type 2 (Homo sapiens) (UniProt O43603). The series is described as follows: Displacement of [125I]galanin from recombinant human GAL2 receptor at 10 uM after 120 mins by radiometric scintillation analysis relative to control.
Series [11] in a line: MRT in CD-1 mouse plasma at 5 mg/kg, ip measured up to 480 mins by LC/ESI-MS/MS analysis. It is filed as ADME, organism-based.
Series [12] addresses Nociceptin receptor (Homo sapiens) (UniProt P41146). The series is described as follows: Displacement of [3H]nociceptin from recombinant human ORL1 receptor at 10 uM after 60 mins by radiometric scintillation analysis relative to control.
Series [13] can be described thus: Mutagenicity in Salmonella typhimurium TA102 at 250 ug/plate preincubated for 20 mins followed by addition of top agar and measured after 48 hrs by Ames test. The following applies: salmonella enterica subsp. enterica serovar typhimurium. It is filed as toxicity.
Series [14] addresses Beta-2 adrenergic receptor (Homo sapiens) (UniProt P07550). Put plainly: Displacement of [3H](-)CGP 12177 from recombinant human beta 2 receptor at 10 uM after 120 mins by radiometric scintillation analysis relative to control.
The target of series [15] is C-X-C chemokine receptor type 2 (Homo sapiens) (UniProt P25025). The series is described as follows: Displacement of [125I]IL-8 from recombinant human CXCR2 at 10 uM after 60 mins by radiometric scintillation analysis relative to control.
For series [16], the target named is 5-hydroxytryptamine receptor 2B (Homo sapiens, UniProt P41595). The series is described as follows: Displacement of [125I](+/-)DOI from recombinant human 5-HT2B receptor at 10 uM after 60 mins by radiometric scintillation analysis relative to control.
Series [17] addresses Adenosine receptor A2a (Homo sapiens) (UniProt P29274). Put plainly: Displacement of [3H]CGS 21680 from recombinant human A2A receptor at 10 uM after 120 mins by radiometric scintillation analysis relative to control.

Sequence of 5-hydroxytryptamine receptor 2B (P41595 whole entry): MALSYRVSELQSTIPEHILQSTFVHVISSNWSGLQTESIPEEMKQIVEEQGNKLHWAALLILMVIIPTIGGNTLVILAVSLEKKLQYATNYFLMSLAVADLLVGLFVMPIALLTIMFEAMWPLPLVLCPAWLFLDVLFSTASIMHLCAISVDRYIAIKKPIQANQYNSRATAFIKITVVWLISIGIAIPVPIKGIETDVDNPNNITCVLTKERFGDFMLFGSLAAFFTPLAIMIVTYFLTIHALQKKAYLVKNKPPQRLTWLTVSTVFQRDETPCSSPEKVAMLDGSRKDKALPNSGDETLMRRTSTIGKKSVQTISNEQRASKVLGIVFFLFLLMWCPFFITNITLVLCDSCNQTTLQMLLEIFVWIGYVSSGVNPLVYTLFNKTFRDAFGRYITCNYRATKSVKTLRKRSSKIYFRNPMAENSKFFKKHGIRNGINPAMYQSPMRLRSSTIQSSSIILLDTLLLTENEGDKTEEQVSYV
Sequence of Galanin receptor type 2 (Homo sapiens) (O43603 whole entry): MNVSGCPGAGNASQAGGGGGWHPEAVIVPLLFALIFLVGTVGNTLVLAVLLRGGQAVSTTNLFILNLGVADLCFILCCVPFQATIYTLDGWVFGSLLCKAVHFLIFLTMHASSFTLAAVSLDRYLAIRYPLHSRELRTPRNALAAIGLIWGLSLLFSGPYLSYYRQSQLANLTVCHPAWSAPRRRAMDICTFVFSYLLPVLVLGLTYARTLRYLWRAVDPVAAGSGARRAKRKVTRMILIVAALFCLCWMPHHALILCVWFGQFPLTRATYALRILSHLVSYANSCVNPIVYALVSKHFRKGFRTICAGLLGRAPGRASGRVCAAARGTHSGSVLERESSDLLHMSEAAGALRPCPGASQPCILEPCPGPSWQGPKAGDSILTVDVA
Sequence of Kappa-type opioid receptor (Homo sapiens) (P41145 whole entry): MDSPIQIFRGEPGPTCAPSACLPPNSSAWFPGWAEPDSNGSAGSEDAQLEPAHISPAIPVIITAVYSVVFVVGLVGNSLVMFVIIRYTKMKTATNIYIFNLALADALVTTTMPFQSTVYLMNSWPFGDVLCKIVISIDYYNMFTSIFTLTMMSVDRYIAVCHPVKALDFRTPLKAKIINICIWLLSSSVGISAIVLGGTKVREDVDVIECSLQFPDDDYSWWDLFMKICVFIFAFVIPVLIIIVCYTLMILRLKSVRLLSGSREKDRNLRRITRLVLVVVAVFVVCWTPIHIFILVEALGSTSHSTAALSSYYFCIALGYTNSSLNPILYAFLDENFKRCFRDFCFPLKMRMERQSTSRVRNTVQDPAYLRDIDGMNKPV
Sequence of C-X-C chemokine receptor type 2 (Homo sapiens) (P25025 whole entry): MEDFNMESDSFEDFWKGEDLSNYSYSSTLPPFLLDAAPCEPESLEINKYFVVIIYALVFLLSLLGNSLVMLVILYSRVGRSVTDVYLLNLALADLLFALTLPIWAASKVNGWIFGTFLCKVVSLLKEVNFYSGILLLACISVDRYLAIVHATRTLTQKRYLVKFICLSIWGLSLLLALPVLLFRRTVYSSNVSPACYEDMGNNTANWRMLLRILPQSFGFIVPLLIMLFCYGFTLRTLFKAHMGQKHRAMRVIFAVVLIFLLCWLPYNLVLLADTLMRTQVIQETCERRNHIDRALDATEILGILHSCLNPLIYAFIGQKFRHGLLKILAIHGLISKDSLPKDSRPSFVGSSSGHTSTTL
Sequence of Adenosine receptor A2a (Homo sapiens) (P29274 whole entry): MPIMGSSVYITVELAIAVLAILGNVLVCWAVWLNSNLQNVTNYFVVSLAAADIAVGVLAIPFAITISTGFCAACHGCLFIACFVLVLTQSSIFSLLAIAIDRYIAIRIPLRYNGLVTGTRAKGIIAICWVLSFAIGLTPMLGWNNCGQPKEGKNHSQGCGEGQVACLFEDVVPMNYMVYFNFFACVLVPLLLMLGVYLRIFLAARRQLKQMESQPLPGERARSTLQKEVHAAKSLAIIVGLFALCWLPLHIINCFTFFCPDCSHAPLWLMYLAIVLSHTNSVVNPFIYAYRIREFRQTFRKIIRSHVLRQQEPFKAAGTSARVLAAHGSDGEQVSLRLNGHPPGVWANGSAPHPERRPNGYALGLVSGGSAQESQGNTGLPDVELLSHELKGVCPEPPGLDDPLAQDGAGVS
Sequence of Serotonin 2 (5-HT2) receptor (Rattus norvegicus) (P08909 whole entry, looked up): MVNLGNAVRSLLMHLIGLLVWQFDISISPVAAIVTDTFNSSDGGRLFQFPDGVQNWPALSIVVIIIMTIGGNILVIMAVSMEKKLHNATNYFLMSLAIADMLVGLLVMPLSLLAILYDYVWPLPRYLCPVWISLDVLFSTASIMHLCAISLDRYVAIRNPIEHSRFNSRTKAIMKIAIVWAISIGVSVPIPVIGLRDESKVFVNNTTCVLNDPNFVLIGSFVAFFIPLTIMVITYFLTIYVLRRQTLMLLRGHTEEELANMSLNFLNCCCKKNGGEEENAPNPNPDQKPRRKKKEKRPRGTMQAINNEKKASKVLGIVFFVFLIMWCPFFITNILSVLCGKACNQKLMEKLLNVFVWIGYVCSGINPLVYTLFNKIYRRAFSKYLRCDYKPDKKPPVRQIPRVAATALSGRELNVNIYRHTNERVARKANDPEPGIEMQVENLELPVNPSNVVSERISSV
Sequence of Serotonin 2 (5-HT2) receptor (Rattus norvegicus) (P14842 whole entry, looked up): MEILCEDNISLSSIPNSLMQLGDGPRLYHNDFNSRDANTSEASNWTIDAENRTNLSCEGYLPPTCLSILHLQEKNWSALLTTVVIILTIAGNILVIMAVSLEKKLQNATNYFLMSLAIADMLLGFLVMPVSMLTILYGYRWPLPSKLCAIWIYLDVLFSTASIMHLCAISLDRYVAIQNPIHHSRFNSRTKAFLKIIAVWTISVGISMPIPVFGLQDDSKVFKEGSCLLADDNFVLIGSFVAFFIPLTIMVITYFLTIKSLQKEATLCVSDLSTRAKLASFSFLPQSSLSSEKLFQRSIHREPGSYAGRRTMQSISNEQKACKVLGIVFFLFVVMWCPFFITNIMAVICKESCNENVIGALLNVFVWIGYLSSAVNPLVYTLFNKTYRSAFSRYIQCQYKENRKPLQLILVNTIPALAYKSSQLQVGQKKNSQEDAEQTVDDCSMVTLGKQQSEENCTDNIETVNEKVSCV
Sequence of Serotonin 2 (5-HT2) receptor (Rattus norvegicus) (P30994 whole entry, looked up): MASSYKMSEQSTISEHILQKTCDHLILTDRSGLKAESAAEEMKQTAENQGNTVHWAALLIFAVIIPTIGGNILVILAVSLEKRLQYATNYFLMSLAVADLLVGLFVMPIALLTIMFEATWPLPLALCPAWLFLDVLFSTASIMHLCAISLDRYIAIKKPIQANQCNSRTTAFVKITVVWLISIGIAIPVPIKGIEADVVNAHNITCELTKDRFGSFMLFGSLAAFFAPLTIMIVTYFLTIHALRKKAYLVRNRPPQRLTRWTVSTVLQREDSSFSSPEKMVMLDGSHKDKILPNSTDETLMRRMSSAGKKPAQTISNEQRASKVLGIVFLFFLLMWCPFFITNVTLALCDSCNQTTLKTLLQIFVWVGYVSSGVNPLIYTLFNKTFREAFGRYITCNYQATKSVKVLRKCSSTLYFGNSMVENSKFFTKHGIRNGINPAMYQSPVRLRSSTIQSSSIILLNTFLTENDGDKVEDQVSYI
Sequence of Mu-type opioid receptor (Homo sapiens) (P35372 whole entry): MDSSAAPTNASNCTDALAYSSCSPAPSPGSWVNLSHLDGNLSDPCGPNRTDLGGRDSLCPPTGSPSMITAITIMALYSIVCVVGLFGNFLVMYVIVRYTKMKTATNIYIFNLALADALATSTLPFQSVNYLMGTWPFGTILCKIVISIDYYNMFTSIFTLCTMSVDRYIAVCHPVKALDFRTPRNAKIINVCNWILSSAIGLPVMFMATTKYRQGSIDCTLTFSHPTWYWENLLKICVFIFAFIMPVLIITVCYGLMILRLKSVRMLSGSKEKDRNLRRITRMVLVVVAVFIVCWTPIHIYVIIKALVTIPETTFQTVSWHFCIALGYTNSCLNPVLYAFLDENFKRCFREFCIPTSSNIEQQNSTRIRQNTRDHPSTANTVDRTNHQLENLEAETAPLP
Sequence of Nociceptin receptor (Homo sapiens) (P41146 whole entry): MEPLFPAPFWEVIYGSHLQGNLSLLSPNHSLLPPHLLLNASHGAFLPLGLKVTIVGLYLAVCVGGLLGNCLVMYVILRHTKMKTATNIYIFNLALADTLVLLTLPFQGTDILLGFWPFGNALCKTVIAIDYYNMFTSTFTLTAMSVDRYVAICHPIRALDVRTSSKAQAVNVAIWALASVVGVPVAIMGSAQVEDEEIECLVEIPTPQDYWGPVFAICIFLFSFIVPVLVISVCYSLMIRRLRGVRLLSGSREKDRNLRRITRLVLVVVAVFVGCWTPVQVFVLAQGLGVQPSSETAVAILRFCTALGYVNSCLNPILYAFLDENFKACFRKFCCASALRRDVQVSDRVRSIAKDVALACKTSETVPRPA
Sequence of Beta-2 adrenergic receptor (Homo sapiens) (P07550 whole entry, looked up): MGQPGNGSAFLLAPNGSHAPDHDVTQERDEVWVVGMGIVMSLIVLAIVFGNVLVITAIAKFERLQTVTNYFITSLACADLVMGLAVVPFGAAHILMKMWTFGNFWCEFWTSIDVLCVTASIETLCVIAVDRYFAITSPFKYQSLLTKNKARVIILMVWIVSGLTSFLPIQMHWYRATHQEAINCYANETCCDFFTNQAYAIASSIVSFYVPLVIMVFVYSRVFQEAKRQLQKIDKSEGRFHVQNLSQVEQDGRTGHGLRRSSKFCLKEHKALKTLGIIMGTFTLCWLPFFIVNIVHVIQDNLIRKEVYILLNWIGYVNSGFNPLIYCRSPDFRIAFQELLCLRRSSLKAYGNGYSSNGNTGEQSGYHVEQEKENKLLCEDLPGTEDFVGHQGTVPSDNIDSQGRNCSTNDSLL

On to `Cl.Cl.O=c1c2cc(Cl)ccc2oc2ccc(CN3CCN(CCOCCO)CC3)cc12`, for which the inhibition in the series filed under Rattus norvegicus [1] is -3.1%; in [2], 47%; in [4], 11.8%; in the series listed under Rattus norvegicus [6] it was 5%; in series [7] it was 3.1%; in series [9] it was 12.2%. Moreover, the inhibition in series [10] worked out at 1.4%; in series [12], 6.5%; in [14], 3.7%; in series [15] it was 19.8%; in series [16], 76.8%; in series [17], 12.2%. The Cmax in [3] amounted to 1920 ng/mL. Besides, the Tmax is 30 min in series [5] and 15 min in [8]. In addition, the MRT in series [11] is 2.59 h. In series [13], this compound yielded an Activity_index of 1.28.
